Source: PubChem BioAssay (NCI)
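Protocol summary: plate cells (96-well), add compound at 5 concentrations, incubate 48 h, interpolate endpoints linearly. At the TGI there is no net growth.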

What was measured:
Test in all cases: NCI-60 cell line screen, 48 h
[1] = system: MDA-MB-231 breast
[2] = system: OVCAR-5 ovarian
[3] = system: UACC-257 melanoma
[4] = system: HCT-15 colon
[5] = system: HS 578T breast
[6] = system: COLO 205 colon
[7] = system: MDA-MB-435
[8] = system: NCI/ADR-RES ovarian
[9] = system: MALME-3M melanoma
[10] = system: TK-10 renal
[11] = system: MCF7 breast
[12] = system: OVCAR-8 ovarian
[13] = system: A549 NSCLC
[14] = system: HT29 colon
[15] = system: HCT-116 colon
[16] = system: NCI-H226 lung
[17] = system: K-562 leukemia
[18] = system: KM12 colon
[19] = system: M14 melanoma

Row | SMILES | TGI [1] | TGI [2] | TGI [3] | TGI [4] | TGI [5] | TGI [6] | TGI [7] | TGI [8] | TGI [9] | TGI [10] | TGI [11] | TGI [12] | TGI [13] | TGI [14] | TGI [15] | TGI [16] | TGI [17] | TGI [18] | TGI [19]
1 | CC(=O)OCC1OC(O[C@@H]2C[C@H]3C(C)(C)[C@H](OC(C)=O)CC[C@]3(C)[C@H]3CC[C@@]45C[C@H](O)C[C@H](C)[C@@H]4CC=C5[C@@]32C)C(O)C(O)C1O (stereo partly drawn) | 11.6 µM | 6.42 µM | 17.8 µM | 25.5 µM | 18.2 µM | 3.28 µM | 11.2 µM | 32.9 µM | 20.3 µM | 21.4 µM | 11 µM | 17.4 µM | 16.9 µM | 3.7 µM | 4.85 µM | 16.1 µM | 7.66 µM | 7.59 µM | 14.8 µM
2 | C/C(=N\N=C(\N)OB(F)F)c1ccccn1 | > 100 µM | > 100 µM | > 100 µM | > 100 µM | > 100 µM | > 100 µM | > 100 µM | > 100 µM | > 100 µM | > 100 µM | > 100 µM | > 100 µM | > 100 µM | > 100 µM | > 100 µM | > 100 µM | > 100 µM | > 100 µM | > 100 µM
3 | C=CC1(c2ccc(Cl)c(Cl)c2)OCCO1 | 3.48 µM | > 100 µM | > 100 µM | > 100 µM | > 100 µM | > 100 µM | > 100 µM | > 100 µM | > 100 µM | > 100 µM | > 100 µM | > 100 µM | > 100 µM | > 100 µM | > 100 µM | > 100 µM | > 100 µM | > 100 µM | > 100 µM
4 | COc1ccc(Cc2nc3cc(Cl)ccc3o2)cc1 | > 100 µM | > 100 µM | 70.6 µM | > 100 µM | > 100 µM | > 100 µM | 69 µM | 76.9 µM | > 100 µM | > 100 µM | > 100 µM | > 100 µM | > 100 µM | > 100 µM | > 100 µM | > 100 µM | > 100 µM | > 100 µM | > 100 µM
5 | CCOC(=O)c1c(Nc2ccccc2)sc2cccnc12 | > 83.5 µM | 79.4 µM | 51.1 µM | 58.3 µM | > 69.1 µM | > 60.5 µM | 54.6 µM | 67.8 µM | 53.4 µM | 86.1 µM | 59.5 µM | 64 µM | 81.1 µM | 49.6 µM | 46.7 µM | 57.1 µM | 82.8 µM | 37.6 µM | 26.4 µM
6 | C/C=C1/CN2CCC34C5=CC(=O)C(c6cc7c(cc6OC)N(C)C6=C(C(=O)OC)CC8(CC)CCCN9CCC67C98)=CC5=NC23CCC1C4C(=O)OC (stereo not drawn) | 23.5 µM | 16.8 µM | 27.1 µM | 28.3 µM | 25.6 µM | 22.9 µM | 26 µM | 54.3 µM | 28.6 µM | 30.9 µM | 22.8 µM | 30.2 µM | 30.3 µM | 28 µM | 23.1 µM | 39 µM | 15.9 µM | 30.3 µM | 24.8 µM
7 | COc1cccc(N=N/C(=N/NC(=O)c2cc(Cl)ccc2O)c2ccc(N(CCC#N)CCC#N)cc2C)c1 | > 100 µM | > 100 µM | 59.5 µM | > 100 µM | > 100 µM | 41.2 µM | > 100 µM | > 100 µM | 48.7 µM | > 100 µM | 79.1 µM | 55.3 µM | > 100 µM | > 100 µM | > 100 µM | > 100 µM | > 100 µM | > 100 µM | > 100 µM
8 | COc1ccc2cc(-c3ccc(OC)c(OC)c3)c(=O)oc2c1 | > 100 µM | > 100 µM | > 100 µM | > 100 µM | > 100 µM | > 100 µM | > 100 µM | > 100 µM | > 100 µM | > 100 µM | > 100 µM | > 100 µM | > 100 µM | > 100 µM | > 100 µM | > 100 µM | > 100 µM | > 100 µM | > 100 µM
9 | C/C(=N/NC(=S)N1CCCCCC1)c1ccccc1O | > 66.8 µM | > 100 µM | 30.9 µM | > 100 µM | > 100 µM | > 49.3 µM | > 100 µM | 8.35 µM | > 49.8 µM | > 100 µM | > 100 µM | > 100 µM | > 100 µM | 39.7 µM | > 100 µM | > 59.5 µM | > 100 µM | > 53.7 µM | 11 µM
10 | C[C@]1(O)CC(=O)c2c(c(-c3ccc4cc5c(c(O)c4c3O)C(=O)C[C@@](C)(O)C5)c3cccc(O)c3c2O)C1 | 19.3 µM | 25.3 µM | 30.8 µM | 11.4 µM | 88 µM | 3.3 µM | 41 µM | 25.4 µM | 27.1 µM | 28 µM | > 100 µM | 18.5 µM | 23.8 µM | 20 µM | 79.7 µM | 21.9 µM | > 100 µM | 11.7 µM | 29.8 µM
11 | Cc1ccc2c(=O)c(-c3nnsn3)c[nH]c2n1 | > 100 µM | > 100 µM | > 100 µM | > 100 µM | > 100 µM | > 100 µM | > 100 µM | > 100 µM | > 100 µM | > 100 µM | > 100 µM | > 100 µM | > 100 µM | > 100 µM | > 100 µM | > 100 µM | > 100 µM | > 100 µM | > 100 µM
12 | C/C=C/C=C/C1=NN(c2cccc(S(=O)(=O)O)c2)C2(C1)C(Cl)C(=O)N2c1nc2ccccc2s1 (stereo not drawn) | 28.9 µM | 34.8 µM | 33.5 µM | 31.4 µM | > 90.3 µM | 35.3 µM | 26.6 µM | > 82.7 µM | 32.7 µM | 27.8 µM | 27 µM | > 54.8 µM | 28.3 µM | 33.3 µM | 27.7 µM | 32 µM | > 62.1 µM | 27.3 µM | 29.4 µM
